As a reminder, the IC50 is the concentration that gives 50% inhibition. Read a low IC50 as inhibition by little substance.

IC50 data for one substance are collected here from patent EP1500662A2, “Stabilizing peptides” (CORNELL RESEARCH FOUNDATION, INC., priority 2003, dated 2005).

Holding throughout (type): cell-based
The subject of one assay is HIV-1 CM.235. How it is done: (§1) PBMC Infectivity Assay. PBMC were isolated from healthy blood donors by Ficoll-Hypaque centrifugation and then stimulated for 2-3 days with phytohemagglutinin (5 µg/ml) and interleukin-2 (100 U/ml). The inhibition assay was performed essentially as described previously (Trkola, A., T. Ketas, V. N. KewalRamani, F. Endorf, J. M. Binley, H. Katinger, J. Robinson, D. R. Littman, and J. P. Moore. 1998. Neutralization sensitivity of human immunodeficiency virus type 1 primary isolates to antibodies and CD4-based reagents is independent of co-receptor usage. J. Virol. 72:1876-1885; Trkola, A., W. A. Paxton, S. P. Monard, J. A. Hoxie, M. A. Siani, D. A. Thompson, L. Wu, C. R. Mackay, R. Horuk, and J. P. Moore. 1998. Genetic subtype-independent inhibition of human immunodeficiency virus type 1 replication by CC and CXC chemokines. J. Virol. 72:396-404).
(§2) Briefly, the virus inoculum was adjusted to 400-1,000 TCID50/ml in assay medium (RPMI 1640, 10% FCS, 100 U of interleukin-2 per ml, glutamine, and peptides), and 50 µl aliquots were incubated with serial dilutions of the peptide inhibitors (50 µl) for 1 h at 37 °C. […] RBMC (4 x 10^5 in 100 µl of medium) were then added. The final concentration of virus in the cultures was 20-50 TCID50/well, corresponding to 100-250 TCID50/ml. […] The viral inocula in 50% tissue culture infectious doses (TCID50) were 400-1000/ml.

The next assay relates to HIV-1 UG270. How it is done: as §1, §2
Another assay deals with HIV-1 94ZW103. How it is done:
as §1, §2

In a further assay the test system is HIV-1 NL4-3. On the procedure:
as §1, §2

The subject of the next assay is HIV-1 DJ258. On the procedure:
as §1, §2

A further assay deals with HIV-1 Case C 7/86. How it is done:
as §1, §2

The next assay concerns HIV-1 JFRL. How it is done:
as §1, §2

Regarding Enfuvirtide, the IC50 in the assay on HIV-1 CM.235 was found to be 79 nM; in the assay with HIV-1 UG270, 257 nM; in the assay on HIV-1 94ZW103, 13 nM; with HIV-1 NL4-3, 35 nM; in the assay on HIV-1 DJ258, 83 nM; in the assay on HIV-1 Case C 7/86, 4 nM. The substance also displayed an IC50 in the assay on HIV-1 JFRL of 9 nM.
